Measured values reported in patent US20240148723A1, “MYCOBACTERIUM TUBERCULOSIS COMPOSITIONS AND METHODS” (priority 2021, published 2024).
“And” between values parts separate entries of the source, which are not always exact repeats. Identical values can stand only once.

Tests used:
[1] = test system: five PZA resistant M. tuberculosis strains; assay: microbe, parasite or virus in culture; type: cell-based; details: Mycobacterium tuberculosis, 504 h, pH 6.8, read-out: MIC for PZA
[2] = test system: M. tuberculosis PZA-resistant strains #6, #78, #98, #106, #186; type: cell-based; details: PZA-S1-Plus agar, pH 6.8, 400, 800 and 1600 μg PZA
[3] = test system: PZA-resistant strain (PZA^R) (#6 PncA mutation L159P); type: cell-based, Mycobacterium tuberculosis; details: pH 6.8
[4] = test system: Z6 PZA-resistant strain with mutation in pncA gene; type: cell-based, Mycobacterium tuberculosis
[5] = test system: Z98 PZA-resistant strain with mutation in pncA gene; type: cell-based, Mycobacterium tuberculosis
[6] = test system: Z186 PZA-resistant strain with mutation in pncA gene; type: cell-based, Mycobacterium tuberculosis
[7] = test system: ORA48 PZA-resistant strain with mutation in panD gene; type: cell-based, Mycobacterium tuberculosis
[8] = test system: ORA76 PZA-resistant strain with mutation in panD gene; type: cell-based, Mycobacterium tuberculosis
[9] = test system: ORA136 PZA-resistant strain with mutation in panD gene; type: cell-based, Mycobacterium tuberculosis

With `NC(=O)c1cnccn1` [PZA, Pyrazinamide] as the compound, how does the MIC [1] read?
The MIC was > 800 µg/mL.

And the “growth inhibition, paper disk” value [2]?
The value was “no inhibition”.

And the “PZA concentration at which the resistant strain grew” value [3]?
Its value is 800 µg/mL.

And the “MIC of PZA” value [4]?
Its value is “greater than 300 μg/ml”.

And the “Percentage of CFU to Z 0” value [4]?
The value was 9.33% and 10.00% and 8.65% and 12.47%.

What about the “MIC of PZA” value [5] of the same compound?
The value was “greater than 300 μg/ml”.

And the “Percentage of CFU to Z 0” value [5]?
Its value is 6.76% and 6.62% and 5.15% and 5.81%.

What about the “MIC of PZA” value [6] of the same compound?
The value was “greater than 300 μg/ml”.

And the “Percentage of CFU to Z 0” value [6]?
Its value is 1.07% and 1.09% and 1.01% and 1.08%.

What about the “MIC of PZA” value [7] of the same compound?
Its value is “greater than 300 μg/ml”.

What about the “Percentage of CFU to Z 0” value [7] of the same compound?
Its value is 3.74% and 3.48% and 3.39% and 3.00%.

And the “MIC of PZA” value [8]?
The value was “greater than 300 μg/ml”.

What about the “Percentage of CFU to Z 0” value [8] of the same compound?
The value was 2.26% and 1.83% and 2.33% and 2.31%.

What about the “MIC of PZA” value [9] of the same compound?
Its value is “greater than 300 μg/ml”.

What about the “Percentage of CFU to Z 0” value [9] of the same compound?
Its value is 3.70% and 4.19% and 3.37% and 2.56%.
